Assay results: article PMC7486443, “Generation of Phenothiazine with Potent Anti-TLK1 Activity for Prostate Cancer Therapy” (iScience, 2020)

Experiments:
Test in all cases: biochemical
Parameters in all cases: DiscoverX KINOMEscan scanMAX competition binding panel, single concentration, percent of control; remaining binding: dose or concentration left out as unconfirmed
Settings in all cases: KINOMEscan binding, percent of control; read-out: Table S4_SCANMAX REPORT - related to Fig. 1 / Percent Control
RIPK5 = target: T1, RIPK5 (Homo sapiens, UniProt Q6XUX3)
T1 construct: gene DSTYK

RIPK2 = RIPK2 (Homo sapiens, UniProt O43353)
RIPK2, sequence (O43353 whole entry): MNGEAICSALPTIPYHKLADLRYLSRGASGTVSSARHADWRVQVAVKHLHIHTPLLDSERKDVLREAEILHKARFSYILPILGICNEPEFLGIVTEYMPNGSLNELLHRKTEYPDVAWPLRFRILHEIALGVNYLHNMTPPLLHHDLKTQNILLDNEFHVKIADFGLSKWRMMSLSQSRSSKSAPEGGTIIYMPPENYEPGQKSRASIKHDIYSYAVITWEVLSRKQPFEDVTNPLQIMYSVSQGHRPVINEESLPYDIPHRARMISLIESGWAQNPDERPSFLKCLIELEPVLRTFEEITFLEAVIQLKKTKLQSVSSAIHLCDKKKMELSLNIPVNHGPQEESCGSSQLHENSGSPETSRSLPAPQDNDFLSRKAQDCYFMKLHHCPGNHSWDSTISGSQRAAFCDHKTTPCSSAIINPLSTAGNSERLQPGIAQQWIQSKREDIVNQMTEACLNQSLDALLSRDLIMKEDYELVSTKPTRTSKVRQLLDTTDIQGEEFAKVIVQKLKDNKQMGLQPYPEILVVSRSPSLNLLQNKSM

EPHA5 = EPHA5 (Homo sapiens, UniProt P54756)
[1] = target: T2, ABL1(H396P)-phosphorylated (Homo sapiens, UniProt P00519, H396P)
T2 construct: phosphorylated

RIOK3 = RIOK3 (Homo sapiens, UniProt O14730)
AMPK-alpha1 = target: T3, AMPK-alpha1 (Homo sapiens, UniProt Q13131)
T3 construct: gene PRKAA1

EPHA6 = EPHA6 (Homo sapiens, UniProt Q9UF33)
EPHA6, sequence (Q9UF33 whole entry): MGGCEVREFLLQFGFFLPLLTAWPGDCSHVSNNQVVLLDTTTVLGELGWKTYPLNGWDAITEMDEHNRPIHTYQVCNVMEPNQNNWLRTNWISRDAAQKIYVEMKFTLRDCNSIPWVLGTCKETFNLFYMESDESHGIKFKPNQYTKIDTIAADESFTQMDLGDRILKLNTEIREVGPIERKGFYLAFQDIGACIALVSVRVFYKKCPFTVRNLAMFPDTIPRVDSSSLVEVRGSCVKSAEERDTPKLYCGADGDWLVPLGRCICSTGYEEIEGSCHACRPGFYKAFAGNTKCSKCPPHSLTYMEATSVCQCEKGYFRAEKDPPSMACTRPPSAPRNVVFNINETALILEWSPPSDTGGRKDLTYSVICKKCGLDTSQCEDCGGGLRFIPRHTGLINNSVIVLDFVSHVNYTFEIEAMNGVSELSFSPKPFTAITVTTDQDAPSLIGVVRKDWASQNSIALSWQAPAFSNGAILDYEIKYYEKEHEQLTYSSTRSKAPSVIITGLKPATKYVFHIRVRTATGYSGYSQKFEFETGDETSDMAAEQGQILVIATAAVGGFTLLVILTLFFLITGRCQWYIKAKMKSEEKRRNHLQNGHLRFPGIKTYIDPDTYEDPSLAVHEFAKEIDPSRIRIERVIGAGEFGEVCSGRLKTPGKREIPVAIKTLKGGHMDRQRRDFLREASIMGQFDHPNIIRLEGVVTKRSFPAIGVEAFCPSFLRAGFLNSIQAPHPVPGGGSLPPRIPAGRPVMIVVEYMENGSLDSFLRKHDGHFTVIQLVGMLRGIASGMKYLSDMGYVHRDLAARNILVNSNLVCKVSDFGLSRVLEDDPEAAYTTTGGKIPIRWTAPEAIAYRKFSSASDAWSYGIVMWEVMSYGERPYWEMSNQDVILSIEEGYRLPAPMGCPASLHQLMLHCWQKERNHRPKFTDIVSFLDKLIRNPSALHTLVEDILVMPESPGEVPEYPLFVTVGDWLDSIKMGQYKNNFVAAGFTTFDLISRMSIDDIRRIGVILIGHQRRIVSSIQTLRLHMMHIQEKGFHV

SNARK = target: T4, SNARK (Homo sapiens, UniProt Q9H093)
T4 construct: gene NUAK2
T4 sequence (Q9H093 whole entry): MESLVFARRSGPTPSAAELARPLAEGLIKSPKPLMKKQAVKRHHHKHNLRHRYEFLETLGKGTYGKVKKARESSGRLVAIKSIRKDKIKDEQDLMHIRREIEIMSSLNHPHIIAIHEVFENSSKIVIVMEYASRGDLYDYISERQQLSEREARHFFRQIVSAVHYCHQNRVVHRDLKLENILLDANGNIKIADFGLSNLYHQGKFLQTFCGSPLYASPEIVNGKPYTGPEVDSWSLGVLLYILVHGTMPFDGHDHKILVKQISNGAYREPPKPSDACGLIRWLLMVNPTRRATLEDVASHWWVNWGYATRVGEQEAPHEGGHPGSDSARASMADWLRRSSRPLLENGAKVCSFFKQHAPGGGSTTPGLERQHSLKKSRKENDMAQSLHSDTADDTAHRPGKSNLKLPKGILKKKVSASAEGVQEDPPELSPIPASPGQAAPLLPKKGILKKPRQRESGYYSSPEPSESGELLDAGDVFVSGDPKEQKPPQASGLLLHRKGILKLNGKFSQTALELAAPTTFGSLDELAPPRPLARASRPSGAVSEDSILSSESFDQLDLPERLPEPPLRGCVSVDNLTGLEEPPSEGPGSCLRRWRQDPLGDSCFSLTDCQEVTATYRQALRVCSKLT

CDK4 = CDK4 (Homo sapiens, UniProt P11802)
IKK-alpha = target: T5, IKK-alpha (Homo sapiens, UniProt O15111)
T5 construct: gene CHUK
T5 sequence (O15111 whole entry): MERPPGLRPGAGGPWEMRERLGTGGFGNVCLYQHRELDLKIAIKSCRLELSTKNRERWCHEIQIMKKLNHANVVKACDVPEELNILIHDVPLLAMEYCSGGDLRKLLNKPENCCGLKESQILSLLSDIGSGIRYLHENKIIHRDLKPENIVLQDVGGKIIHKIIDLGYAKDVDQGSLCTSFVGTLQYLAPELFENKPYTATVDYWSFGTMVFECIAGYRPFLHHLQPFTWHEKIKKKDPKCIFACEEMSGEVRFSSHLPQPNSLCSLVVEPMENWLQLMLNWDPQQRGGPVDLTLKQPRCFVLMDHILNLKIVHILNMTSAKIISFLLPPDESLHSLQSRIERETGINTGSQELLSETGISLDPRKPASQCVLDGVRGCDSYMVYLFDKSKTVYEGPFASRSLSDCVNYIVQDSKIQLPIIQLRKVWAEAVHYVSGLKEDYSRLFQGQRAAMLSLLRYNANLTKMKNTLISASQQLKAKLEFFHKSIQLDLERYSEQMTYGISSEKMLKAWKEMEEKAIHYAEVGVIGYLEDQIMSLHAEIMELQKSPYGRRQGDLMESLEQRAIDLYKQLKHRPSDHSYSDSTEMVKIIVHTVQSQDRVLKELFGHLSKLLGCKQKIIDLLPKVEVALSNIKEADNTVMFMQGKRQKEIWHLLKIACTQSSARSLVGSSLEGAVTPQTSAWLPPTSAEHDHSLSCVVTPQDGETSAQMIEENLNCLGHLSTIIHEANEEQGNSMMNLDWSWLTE

CDKL1 = CDKL1 (Homo sapiens, UniProt Q00532)
CDKL1, sequence (Q00532 whole entry): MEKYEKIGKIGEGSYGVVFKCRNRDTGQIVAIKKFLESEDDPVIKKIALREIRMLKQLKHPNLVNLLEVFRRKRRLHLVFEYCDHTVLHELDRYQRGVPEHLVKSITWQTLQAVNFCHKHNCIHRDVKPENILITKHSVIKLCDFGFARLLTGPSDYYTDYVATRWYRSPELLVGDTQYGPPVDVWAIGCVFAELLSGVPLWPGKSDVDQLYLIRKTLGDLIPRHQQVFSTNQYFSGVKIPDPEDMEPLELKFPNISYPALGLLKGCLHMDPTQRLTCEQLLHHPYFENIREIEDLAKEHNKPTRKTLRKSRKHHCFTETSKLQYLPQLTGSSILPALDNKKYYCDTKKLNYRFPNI

PRKG1 = PRKG1 (Homo sapiens, UniProt Q13976)
CSNK1A1L = CSNK1A1L (Homo sapiens, UniProt Q8N752)
CSNK1A1L, sequence (Q8N752 whole entry): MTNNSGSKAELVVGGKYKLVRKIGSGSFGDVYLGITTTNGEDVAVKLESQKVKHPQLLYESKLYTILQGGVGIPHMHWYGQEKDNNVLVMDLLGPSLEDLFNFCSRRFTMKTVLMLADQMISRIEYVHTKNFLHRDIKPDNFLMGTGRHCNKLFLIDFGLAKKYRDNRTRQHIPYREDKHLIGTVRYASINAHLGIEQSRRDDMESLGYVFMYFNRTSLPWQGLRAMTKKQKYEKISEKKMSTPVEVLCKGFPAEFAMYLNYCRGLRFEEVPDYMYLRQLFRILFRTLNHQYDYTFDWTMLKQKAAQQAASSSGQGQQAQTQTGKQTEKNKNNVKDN

MLCK = target: T6, MLCK (Homo sapiens, UniProt Q32MK0)
T6 construct: gene MYLK3
T6 sequence (Q32MK0 whole entry): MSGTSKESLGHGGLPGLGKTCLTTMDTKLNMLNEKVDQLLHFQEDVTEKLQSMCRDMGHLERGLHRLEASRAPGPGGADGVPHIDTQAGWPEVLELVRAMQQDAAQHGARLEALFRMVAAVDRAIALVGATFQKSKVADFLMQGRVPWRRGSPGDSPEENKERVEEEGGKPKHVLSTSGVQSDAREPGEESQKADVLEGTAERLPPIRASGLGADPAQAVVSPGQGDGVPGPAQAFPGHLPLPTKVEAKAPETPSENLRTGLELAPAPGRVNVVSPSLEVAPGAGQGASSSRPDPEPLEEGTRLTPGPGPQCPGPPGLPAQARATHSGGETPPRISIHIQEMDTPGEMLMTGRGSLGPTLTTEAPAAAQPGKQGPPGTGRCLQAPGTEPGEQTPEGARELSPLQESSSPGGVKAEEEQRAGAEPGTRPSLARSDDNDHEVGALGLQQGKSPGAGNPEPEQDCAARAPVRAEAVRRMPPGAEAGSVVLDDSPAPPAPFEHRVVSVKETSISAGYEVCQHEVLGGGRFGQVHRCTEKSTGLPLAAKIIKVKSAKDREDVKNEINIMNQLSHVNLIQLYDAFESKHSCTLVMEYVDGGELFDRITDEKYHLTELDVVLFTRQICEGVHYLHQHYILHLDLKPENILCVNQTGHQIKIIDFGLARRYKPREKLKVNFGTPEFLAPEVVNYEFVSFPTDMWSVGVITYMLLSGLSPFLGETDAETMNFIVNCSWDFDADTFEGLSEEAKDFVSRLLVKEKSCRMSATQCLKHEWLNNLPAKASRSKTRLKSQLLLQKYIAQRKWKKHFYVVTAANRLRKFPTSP

AURKC = AURKC (Homo sapiens, UniProt Q9UQB9)
AURKA = AURKA (Homo sapiens, UniProt O14965)
MST4 = target: T7, MST4 (Homo sapiens, UniProt Q9P289)
T7 construct: gene STK26

EPHA4 = EPHA4 (Homo sapiens, UniProt P54764)
ACVR1 = ACVR1 (Homo sapiens, UniProt Q04771)
ACVR1, sequence (Q04771 whole entry): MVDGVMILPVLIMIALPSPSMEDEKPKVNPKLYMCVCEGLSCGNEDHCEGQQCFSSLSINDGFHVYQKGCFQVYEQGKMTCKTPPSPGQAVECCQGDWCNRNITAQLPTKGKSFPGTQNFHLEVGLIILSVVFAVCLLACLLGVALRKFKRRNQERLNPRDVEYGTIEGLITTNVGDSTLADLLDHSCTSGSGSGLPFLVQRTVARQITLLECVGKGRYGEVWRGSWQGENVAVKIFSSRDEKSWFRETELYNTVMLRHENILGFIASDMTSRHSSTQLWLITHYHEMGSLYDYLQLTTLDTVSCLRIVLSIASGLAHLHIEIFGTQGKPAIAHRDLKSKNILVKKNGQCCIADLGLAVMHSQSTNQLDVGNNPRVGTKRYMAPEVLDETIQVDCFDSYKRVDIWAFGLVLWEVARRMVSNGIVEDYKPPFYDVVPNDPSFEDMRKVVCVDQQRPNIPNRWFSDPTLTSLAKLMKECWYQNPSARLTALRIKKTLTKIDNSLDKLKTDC

For c1ccc2c(c1)Sc1ccccc1N2CCN1CCOCC1 [J54], the remaining binding (RIPK5) was 100%, the remaining binding (RIPK2) was 100% and the remaining binding (EPHA5) was 100%. The remaining binding [1] was 100%, the remaining binding (RIOK3) was 72% and the remaining binding (AMPK-alpha1) was 100%. It also gave a remaining binding (EPHA6) of 100%, a remaining binding (SNARK) of 99% and a remaining binding (CDK4) of 100%. The remaining binding (IKK-alpha) was 100%, the remaining binding (CDKL1) was 79% and the remaining binding (PRKG1) was 86%. It also gave a remaining binding (CSNK1A1L) of 100%, a remaining binding (MLCK) of 79% and a remaining binding (AURKC) of 100%. For the same molecule, the remaining binding (AURKA) was 100%, the remaining binding (MST4) was 100% and the remaining binding (EPHA4) was 100%. It also gave a remaining binding (ACVR1) of 94%.
